Source: PMC9886975, “Ligand recognition mechanism of the human relaxin family peptide receptor 4 (RXFP4)” (Nature Communications, 2023)
“Also recorded” adds a separate entry of the source.

Columns and labels:
[1] = molecular target: T1, RXFP4 E100A (Homo sapiens, UniProt Q8TDU9, E100A); assay: cAMP accumulation, RXFP4 E100A; type: cell-based; settings: HEK293T
T1 construct: RXFP4(1-374)-; expressed in transfected cells; host or cells: HEK293T, transient (pCMV6)
Excerpt: (§1) The full-length human RXFP4 (NCBI Reference Sequence: NM_181885.3) was cloned into a modified pFastBac vector (Invitrogen) with HA signal peptide to enhance receptor expression, followed by a 10× histidine tag and BRIL insertion at the N terminus. LgBiT subunit (Promega) was fused at the C terminus of RXFP4 connected by a 15-amino acid polypeptide linker. […] The engineered human Gαi2, Gβ1, bovine Gγ2, and scFv16 were cloned into the pFastBac vector (Invitrogen), respectively. For cAMP accumulation assay, human RXFP4 and RXFP3 (NCBI Reference Sequence: NM_016568.3) were cloned into pCMV6 constructs (OriGene Technologies). The mutant receptors were modified by site-directed mutagenesis in the setting of the WT constructs, with the primers designed by QuikChange Primer Design [QuickChange Primer Design (http://agilent.com.cn)] and carried out using Phanta Max Master (Vazyme). N-terminal Flag tag was added to both WT and mutant receptors for surface expression measurement. […]
(§2) CHO-K1 (ATCC, Cat#CCL-61) cells stably expressing human RXFP4 (hRXFP4-CHO) or RXFP3 (hRXFP3-CHO) were maintained in DMEM/F12 (Gibco) supplemented with 10% (v/v) fetal bovine serum (FBS) and 2 mM L-glutamine. […] Following 24 h culturing, the transfected cells were ready for detection.
(§3) Ligands were verified for their bioactivity in the beginning in hRXFP4-CHO, which were ready for use after 24 h culturing. […] The time-resolved fluorescence resonance energy transfer (TR-FRET) signals were detected by an EnVision multilabel plate reader (PerkinElmer) with the emission window ratio of 665 nm over 620 nm under 320 nm excitation. […]
(§4) Inhibition of forskolin-induced cAMP accumulation was performed in HEK293T cells transiently transfected with WT and mutant receptors. All the mutant constructs were modified by single-point mutation in the setting of the WT receptor. cAMP accumulation data were analyzed using a three-parameter logistic equation to determine pEC50 and Emax values. Emax values for mutants are defined as the window between the maximal response and vehicle control (no ligand) and expressed as a percentage of the WT. […]

[2] = molecular target: RXFP4 R208K (Homo sapiens, UniProt Q8TDU9, R208K); assay: cAMP accumulation, RXFP4 R208K; type: cell-based; settings: HEK293T
Excerpt: as §1, §2, §3, §4

[3] = tested on: human RXFP3; assay: inhibition of forskolin-induced cAMP accumulation, WT RXFP3 (hRXFP3-CHO); type: cell-based; settings: binding and cAMP assays, Fig. 3e, Supplementary Fig. 2e–g
Description: CHO-K1 (ATCC, Cat#CCL-61) cells stably expressing human RXFP4 (hRXFP4-CHO) or RXFP3 (hRXFP3-CHO) were maintained in DMEM/F12 (Gibco) supplemented with 10% (v/v) fetal bovine serum (FBS) and 2 mM L-glutamine. Human embryonic kidney 293 T cells containing SV40 large T-antigen (HEK293T, ATCC, Cat#64127316) were maintained in DMEM (Gibco) supplemented with 10% (v/v) FBS, 1 mM sodium pyruvate (Gibco), 100 units/mL penicillin and 100 μg/mL streptomycin at 37 °C in 5% CO2. For cAMP assays in mutants, HEK293T cells were seeded onto 6-well cell culture plates at a density of 7 × 10^5 cells per well. After overnight incubation, cells were transfected with WT or mutant receptors using Lipofectamine 3000 transfection reagent (Invitrogen). Following 24 h culturing, the transfected cells were ready for detection.
as §3
All functional study data were analyzed using GraphPad Prism 8.3 (GraphPad Software) and presented as means ± S.E.M. from at least three independent experiments. Dose-response curves were evaluated with a three-parameter logistic equation. […]

[4] = tested on: parental CHO-K1 cells; assay: cAMP accumulation, parental CHO-K1 cells; type: cell-based, Chinese hamster; settings: Supplementary Fig. 2e–g
[5] = molecular target: RXFP4 Q205H (Homo sapiens, UniProt Q8TDU9, Q205H); assay: cAMP accumulation, RXFP4 Q205H; type: cell-based; settings: HEK293T
Excerpt: as §1, §2, §3, §4

[6] = molecular target: T2, RXFP4 Y284A (Homo sapiens, UniProt Q8TDU9, Y284A); assay: cAMP accumulation, RXFP4 Y284A; type: cell-based
T2 construct: RXFP4(1-374)-; expressed in transfected cells; host or cells: HEK293T, transient (pCMV6)
Excerpt: (§5) The full-length human RXFP4 (NCBI Reference Sequence: NM_181885.3) was cloned into a modified pFastBac vector (Invitrogen) with HA signal peptide to enhance receptor expression, followed by a 10× histidine tag and BRIL insertion at the N terminus. LgBiT subunit (Promega) was fused at the C terminus of RXFP4 connected by a 15-amino acid polypeptide linker. […] The engineered human Gαi2, Gβ1, bovine Gγ2, and scFv16 were cloned into the pFastBac vector (Invitrogen), respectively. For cAMP accumulation assay, human RXFP4 and RXFP3 (NCBI Reference Sequence: NM_016568.3) were cloned into pCMV6 constructs (OriGene Technologies). […]
as §2, §3

[7] = molecular target: T3, RXFP3 WT (Homo sapiens, UniProt Q9NSD7); assay: cAMP accumulation, WT RXFP3 (HEK293T); type: cell-based; settings: WT and all the five RXFP3 mutants
T3 construct: RXFP3(1-469)-; expressed in transfected cells; host or cells: HEK293T, transient (pCMV6)
Excerpt: as §5, §2, §3

[8] = molecular target: T4, RXFP4 L118S (Homo sapiens, UniProt Q8TDU9, L118S); assay: cAMP accumulation, RXFP4 L118S; type: cell-based; settings: HEK293T
T4 construct: RXFP4(1-374)-; expressed in transfected cells; host or cells: HEK293T, transient (pCMV6)
Excerpt: as §5, §2, §3

[9] = molecular target: T5, RXFP4 L118A+V122A (Homo sapiens, UniProt Q8TDU9, L118A/V122A); assay: cAMP accumulation, RXFP4 L118A+V122A; type: cell-based; settings: HEK293T
T5 construct: RXFP4(1-374)-; expressed in transfected cells; host or cells: HEK293T, transient (pCMV6)
Excerpt: as §5, §2, §3

[10] = molecular target: T6, RXFP4 L118A (Homo sapiens, UniProt Q8TDU9, L118A); assay: cAMP accumulation, RXFP4 L118A; type: cell-based; settings: HEK293T
T6 construct: RXFP4(1-374)-; expressed in transfected cells; host or cells: HEK293T, transient (pCMV6)
Excerpt: as §5, §2, §3

[11] = 1.5 μM forskolin, mean ± S.E.M., n = 3

RXFP4 R208K, sequence (Q8TDU9 whole entry R208K): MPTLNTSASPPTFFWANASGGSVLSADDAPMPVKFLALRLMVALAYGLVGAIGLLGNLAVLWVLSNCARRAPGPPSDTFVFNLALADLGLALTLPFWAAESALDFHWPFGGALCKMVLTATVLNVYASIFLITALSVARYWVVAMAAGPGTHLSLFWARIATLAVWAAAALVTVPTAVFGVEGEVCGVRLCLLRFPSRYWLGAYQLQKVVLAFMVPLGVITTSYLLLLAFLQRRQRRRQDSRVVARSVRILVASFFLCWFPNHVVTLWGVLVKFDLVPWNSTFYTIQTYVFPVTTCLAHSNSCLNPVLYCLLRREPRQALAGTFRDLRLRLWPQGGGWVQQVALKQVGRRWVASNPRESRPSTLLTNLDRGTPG
T1 sequence (Q8TDU9 whole entry E100A): as the sequence (Q8TDU9 whole entry R208K) above, with E100A, K208R counted along it
RXFP4 Q205H, sequence (Q8TDU9 whole entry Q205H): as the sequence (Q8TDU9 whole entry R208K) above, with Q205H, K208R counted along it
T2 sequence (Q8TDU9 whole entry Y284A): as the sequence (Q8TDU9 whole entry R208K) above, with K208R, Y284A counted along it
T4 sequence (Q8TDU9 whole entry L118S): as the sequence (Q8TDU9 whole entry R208K) above, with L118S, K208R counted along it
T3 sequence (Q9NSD7 whole entry): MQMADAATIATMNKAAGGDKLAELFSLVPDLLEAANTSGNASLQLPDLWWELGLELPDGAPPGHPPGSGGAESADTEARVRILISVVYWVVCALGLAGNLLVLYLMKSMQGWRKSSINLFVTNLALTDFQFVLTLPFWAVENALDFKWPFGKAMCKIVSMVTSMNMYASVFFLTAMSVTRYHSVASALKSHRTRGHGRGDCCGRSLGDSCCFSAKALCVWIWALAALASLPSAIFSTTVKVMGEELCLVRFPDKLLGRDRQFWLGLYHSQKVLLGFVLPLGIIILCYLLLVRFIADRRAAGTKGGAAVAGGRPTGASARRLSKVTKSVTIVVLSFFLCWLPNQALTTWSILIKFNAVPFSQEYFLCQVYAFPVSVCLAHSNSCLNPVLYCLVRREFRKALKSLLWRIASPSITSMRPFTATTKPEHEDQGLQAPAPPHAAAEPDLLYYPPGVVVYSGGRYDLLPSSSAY
T5 sequence (Q8TDU9 whole entry L118A/V122A): as the sequence (Q8TDU9 whole entry R208K) above, with L118A, V122A, K208R counted along it
T6 sequence (Q8TDU9 whole entry L118A): as the sequence (Q8TDU9 whole entry R208K) above, with L118A, K208R counted along it

Question: Which results are given for `CCOc1cc2c(cc1OC)CCN(C(=O)N1CCOCC1)[C@H]2CCc1c[nH]c2ccc(OC)cc12` [DC591053, (S)-(7-ethoxy-6-methoxy-1-(2-(5-methoxy-1H-indol-3-yl)ethyl)−3,4-dihydroisoquinolin-2(1H)-yl)(morpholino)methanone]?
Answer: cAMP response [1]: unchanged agonism; EC50 ([1]; 1.5 μM forskolin, mean ± S.E.M., N.A., not active): 107 nM; Emax ([1]; mean ± S.E.M.): 79.27 ± 6.72 % WT; response [2]: more profound reduction for DC591053 than compound 4; EC50 [2, 11]: 204 nM; Emax ([2]; mean ± S.E.M.): 60.43 ± 6.52 % WT; cross-reactivity with RXFP3 [3]: neither reacted with related RXFP3; also recorded: without observable cross-reactivity; reaction with parental CHO-K1 cells [4]: neither reacted with RXFP3 nor parental CHO-K1 cells; response [5]: more profound reduction for DC591053 than compound 4; EC50 [5, 11]: 676 nM; Emax ([5]; mean ± S.E.M.): 25.10 ± 6.36 % WT

Question: Which EC50 [6] does the source give for `CC[C@H](C)[C@@H]1NC(=O)[C@H](Cc2ccc(O)cc2)NC(=O)[C@H]([C@@H](C)CC)NC(=O)[C@H](C(C)C)NC(=O)[C@H]([C@@H](C)O)NC(=O)[C@H](CCCNC(=N)N)NC(=O)[C@H]([C@@H](C)CC)NC(=O)[C@H](Cc2ccc(O)cc2)NC(=O)[C@H](CCC(=O)O)NC(=O)[C@H](CC(C)C)NC(=O)CNC(=O)[C@@H](NC(=O)[C@H](CC(C)C)NC(=O)[C@H](CCCNC(=N)N)NC(=O)[C@@H](NC(=O)[C@H](CO)NC(=O)[C@H](CCC(=O)O)NC(=O)[C@@H](N)CCCCN)C(C)C)CSSC[C@@H]2NC(=O)[C@@H](NC(=O)[C@H](CC(C)C)NC(=O)[C@@H](NC(=O)[C@H](CCC(N)=O)NC(=O)[C@H](CC(C)C)NC(=O)[C@H](CC(=O)O)NC(=O)[C@@H](N)CCC(N)=O)[C@@H](C)O)CSSC[C@H](NC(=O)CNC(=O)[C@H](CC(=O)O)NC(=O)[C@H]([C@@H](C)O)NC2=O)C(=O)N[C@@H](CO)C(=O)N[C@@H](CCSC)C(=O)N[C@@H]([C@@H](C)O)C(=O)N[C@@H](CC(=O)O)C(=O)N[C@@H](CC(C)C)C(=O)N[C@@H](CO)C(=O)N[C@@H](C)C(=O)N[C@@H](CC(C)C)C(=O)N[C@H](C(=O)O)CSSC[C@@H](C(=O)N[C@@H](C)C(=O)N[C@@H](CO)C(=O)N[C@@H](CO)C(=O)N[C@@H](CCCNC(=N)N)C(=O)N[C@@H](Cc2c[nH]c3ccccc23)C(=O)O)NC1=O` [INSL5, insulin-like peptide 5] here?
Answer: The EC50 was 1.82 nM.

Question: And the Emax ([6]; HEK293T, mean ± S.E.M.)?
Answer: The Emax was 49.25 ± 4.06 % WT.

Question: And the “response” value [7]?
Answer: Its value is “inactive”.

Question: And the “response” value [8]?
Answer: The value was “inactive”.

Question: And the “response” value [9]?
Answer: Its value is “inactive”.

Question: What about the “response” value [10] of the same compound?
Answer: The value was “inactive”.
